ChEMBL document CHEMBL1921754, “Sodium dl-α-tocopheryl-6-O-phosphate inhibits PGE₂ production in keratinocytes induced by UVB, IL-1β and peroxidants” (Bioorg Med Chem, 2011)
Calls of active or inactive are those of the source. The rule behind the calls is not given here.

Assays:
[1] = Protection against UVB irradiation-induced cell damage in NHEK assessed as inhibition of PGE2 production at 2 uM pretreated for 24 hrs before UVB irradiation measured after 24 hrs by enzymatic immunoassay; type: functional; settings: Homo sapiens, light or radiation study
[2] = tested on: Keratinocyte; experiment: Protection against UVB irradiation-induced SV40-transformed human keratinocytes damage assessed as inhibition of PGE2 production at 30 uM pretreated for 24 hrs before UVB irradiation measured after 24 hrs by ELISA; type: functional, cell-based
[3] = Protection against H2O2-induced cell damage in NHEK assessed as inhibition of PGE2 production at 2 uM pretreated for 24 hrs before H2O2 challenge measured after 24 hrs by enzymatic immunoassay; type: functional; settings: Homo sapiens
[4] = Protection against IL1-beta-induced cell damage in NHEK assessed as inhibition of PGE2 production at 2 uM pretreated for 24 hrs before IL1-beta challenge measured after 24 hrs by enzymatic immunoassay; type: functional; settings: Homo sapiens
[5] = tested on: Zone of skin; experiment: Prodrug conversion in 3D restructured human skin model assessed as conversion of compound to dl-alpha-tocopherol at 2% after 4 hrs by HPLC analysis; type: ADME, tissue-based
[6] = organism: Homo sapiens; experiment: Protection against H2O2-induced cell damage in NHEK assessed as inhibition of PGE2 production at 0.5 to 2 uM after 24 hrs by enzymatic immunoassay; type: functional
[7] = (§1) Protection against t-BHP-induced cell damage in NHEK assessed as inhibition of PGE2 production at 2 uM pretreated for 24 hrs before t-BHP challenge measured after 24 hrs by enzymatic immunoassay; type: functional; settings: Homo sapiens
[8] = Protection against IL1-beta-induced cell damage in NHEK assessed as inhibition of PGE2 production at 0.5 uM pretreated for 24 hrs before IL1-beta challenge measured after 24 hrs by enzymatic immunoassay; type: functional; settings: Homo sapiens
[9] = Protection against IL1-beta-induced cell damage in NHEK assessed as inhibition of PGE2 production at 0.1 uM pretreated for 24 hrs before IL1-beta challenge measured after 24 hrs by enzymatic immunoassay; type: functional; settings: Homo sapiens
[10] = organism: Homo sapiens; experiment: as §1; type: functional
[11] = Protection against H2O2-induced cell damage in NHEK assessed as inhibition of PGE2 production at 0.5 to 2 uM pretreated for 24 hrs before H2O2 challenge measured after 24 hrs by enzymatic immunoassay; type: functional, Homo sapiens

Compound	inhibition at 2 µM [1]	inhibition at 2 µM [4]	inhibition [6]	inhibition at 0.5 µM [8]	other results
Cc1ccc(S(=O)(=O)/C=C/C#N)cc1	9%	–	–	–	–
O=C1O[C@H]([C@@H](O)CO)C(O)=C1OP(=O)(O)O	–	–	–	–	inhibition [2]: inactive
CC(=O)Oc1c(C)c(C)c2c(c1C)CC[C@@](C)(CCC[C@H](C)CCC[C@H](C)CCCC(C)C)O2 (racemic)	–	67%	inactive	40%	inhibition at 2 µM [3]: 25%; Drug metabolism [5]: Active; inhibition at 2 µM [7]: 77.4%; inhibition at 0.1 µM [9]: 38%
CC1(C)[C@@H](O[C@H]2O[C@H](C(=O)[O-])[C@@H](O)[C@H](O)[C@H]2O[C@@H]2O[C@H](C(=O)[O-])[C@@H](O)[C@H](O)[C@H]2O)CC[C@]2(C)[C@H]3C(=O)C=C4[C@@H]5C[C@@](C)(C(=O)O)CC[C@]5(C)CC[C@@]4(C)[C@]3(C)CC[C@@H]12.[K+].[K+] [GLYCYRRHIZINATE DIPOTASSIUM]	–	24%	inactive	14%	inhibition [10]: inactive; inhibition (INH) [11]: 40%
C[S+]([O-])c1ccc(-c2nc(-c3ccc(F)cc3)c(-c3ccncc3)[nH]2)cc1 (stereo unspecified) [SB-203580]	73%	–	–	–	–
Oc1c2ccccc2c2c3c(cccc13)N=N2 [SP-600125]	33%	–	–	–	–
